The record followed here is patent publication US9688695B2, “Imidazothiadiazole and imidazopyrazine derivatives as protease activated receptor 4 (PAR4) inhibitors for treating platelet aggregation” (BRISTOL-MYERS SQUIBB COMPANY, priority 2012, dated 2017).

The structures appear in SMILES notation.

The assay has as its target PAR4 (Homo sapiens (Human), UniProt Q96RI0). In words: FLIPR assay in PAR4-expressing HEK293 cells (PAR4 antagonist activity, calcium mobilization). The assay is classed as cell-based. In a few lines: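 HEK293 EBNA cells stably expressing human PAR4 (also endogenous PAR1) preincubated 30 min at room temperature with compound in HBSS/10 mM HEPES, 0.67% DMSO final. PAR4 agonist peptide then added and intracellular calcium mobilization monitored by fluorescence.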
(A change in cytosolic calcium serves as a functional read-out for many receptors and channels.)

The mark [1] stands for this setting: H-Ala-Phe(4-F)-Pro-Gly-Trp-Leu-Val-Lys-Asn-Gly-NH2-induced calcium mobilization.

Chain of PAR4 (Q96RI0 18-385): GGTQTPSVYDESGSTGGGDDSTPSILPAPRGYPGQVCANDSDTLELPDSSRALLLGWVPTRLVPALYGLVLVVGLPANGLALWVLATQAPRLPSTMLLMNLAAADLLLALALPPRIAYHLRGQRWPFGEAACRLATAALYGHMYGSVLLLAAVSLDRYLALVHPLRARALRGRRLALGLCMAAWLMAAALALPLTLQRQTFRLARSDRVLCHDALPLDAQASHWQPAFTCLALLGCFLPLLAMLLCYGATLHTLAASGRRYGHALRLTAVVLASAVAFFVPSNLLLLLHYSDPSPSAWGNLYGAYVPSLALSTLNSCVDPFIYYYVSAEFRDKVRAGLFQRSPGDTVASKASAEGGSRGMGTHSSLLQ

A word on the EC50: it is the concentration needed to bring the measured effect to its halfway point. Take `COc1cc(OCc2csc(C3(O)CCN(C(=O)OC(C)(C)C)CC3)n2)c2cc(-c3cn4nc(OC)sc4n3)oc2c1` [Example 129, tert-Butyl 4-hydroxy-4-(4-(((6-methoxy-2-(2-methoxyimidazo[2,1-b][1,3,4]thiadiazol-6-yl)benzofuran-4-yl)oxy)methyl)thiazol-2-yl)piperidine-1-carboxylate]: the EC50 under setting [1] turned out to be 0.96 nM. For the compound `COc1cc(OCc2csc(C3(O)CCCCC3)n2)c2cc(-c3cn4nc(OC)sc4n3)oc2c1` [Example 133, 1-(4-(((6-Methoxy-2-(2-methoxyimidazo[2,1-b][1,3,4]thiadiazol-6-yl)benzofuran-4-yl)oxy)methyl)thiazol-2-yl)cyclohexanol], under setting [1], the EC50 was 0.37 nM. On the same count and under the same terms, the result for `COc1cc(OCc2csc(N3CCN(C)CC3)n2)c2cc(-c3cn4nc(C)ccc4n3)oc2c1` [Example 207, 4-(((6-Methoxy-2-(6-methylimidazo[1,2-b]pyridazin-2-yl)benzofuran-4-yl)oxy)methyl)-2-(4-methylpiperazin-1-yl)thiazole] reads 7.7 nM. Still for that read-out and setting: the value for `COc1cc(OCc2csc(C3CCN(C(=O)c4ccccc4)CC3)n2)c2cc(-c3cn4nc(OC)sc4n3)oc2c1` [Example 110, (4-(4-(((6-Methoxy-2-(2-methoxyimidazo[2,1-b][1,3,4]thiadiazol-6-yl)benzofuran-4-yl)oxy)methyl)thiazol-2-yl)piperidin-1-yl)(phenyl)methanone] was 0.78 nM; that for `COc1cc(OCc2csc(NC(C)C)n2)c2cc(-c3cn4nc(C)ccc4n3)oc2c1` [Example 255] was 1.7 nM. Still for that read-out and setting: the value for `COc1cc(OCc2csc(C3(c4ccc(C)cc4)CCOCC3)n2)c2cc(-c3cn4nc(OC)sc4n3)oc2c1` [Example 157, 2-Methoxy-6-(6-methoxy-4-((2-(4-(p-tolyl)tetrahydro-2H-pyran-4-yl)thiazol-4-yl)methoxy)benzofuran-2-yl)imidazo[2,1-b][1,3,4]thiadiazole] was 3.6 nM. On to `COc1cc(OCc2csc(-c3ccc(C(=O)NC(C)(C)C)cc3)n2)c2cc(-c3cn4nc(OC)sc4n3)oc2c1` [Example 41, N-(tert-Butyl)-4-(4-(((6-methoxy-2-(2-methoxyimidazo[2,1-b][1,3,4]thiadiazol-6-yl)benzofuran-4-yl)oxy)methyl)thiazol-2-yl)benzamide], for which the EC50 under setting [1] stood at 0.9 nM. Consider `COc1cc(OCc2csc(CC(C)C)n2)c2cc(-c3cn4nc(OC)sc4n3)oc2c1` [Example 50], for which the EC50 under setting [1] stood at 0.21 nM. In the case of `COc1cc(OCc2csc(-c3ccc(C(=O)N4CCCCCC4)cc3)n2)c2cc(-c3cn4nc(OC)sc4n3)oc2c1` [Example 303], the EC50 under setting [1] came to 0.85 nM. For the compound `COC[C@@H]1CCCN1c1nc(COc2cc(OC)cc3oc(-c4cn5nc(OC)sc5n4)cc23)cs1` [Example 107, (S)-2-Methoxy-6-(6-methoxy-4-((2-(2-(methoxymethyl)pyrrolidin-1-yl)thiazol-4-yl)methoxy)benzofuran-2-yl)imidazo[2,1-b][1,3,4]thiadiazole], the EC50 under setting [1] turned out to be 1.3 nM.

On to `COc1cc(OCc2csc(C3(F)CCC(F)(F)CC3)n2)c2cc(-c3cn4nc(OC)sc4n3)oc2c1` [Example 136, 2-Methoxy-6-(6-methoxy-4-((2-(1,4,4-trifluorocyclohexyl)thiazol-4-yl)methoxy)benzofuran-2-yl)imidazo[2,1-b][1,3,4]thiadiazole], for which the EC50 under setting [1] was found to be 1.2 nM. Still for that read-out and setting: the value for `COC(=O)c1ccc(-c2nc(COc3cc(OC)cc4oc(-c5cn6nc(OC)sc6n5)cc34)cs2)cc1` [Example 37, Methyl 4-(4-(((6-methoxy-2-(2-methoxyimidazo[2,1-b][1,3,4]thiadiazol-6-yl)benzofuran-4-yl)oxy)methyl)thiazol-2-yl)benzoate] was 0.45 nM. For `COc1cc(OCc2csc(C3=CCC4(CC3)OCCO4)n2)c2cc(-c3cn4nc(OC)sc4n3)oc2c1` [Example 127, 6-(4-((2-(1,4-Dioxaspiro-[4.5]dec-7-en-8-yl)thiazol-4-yl)methoxy)-6-methoxybenzofuran-2-yl)-2-methoxyimidazo[2,1-b][1,3,4]thiadiazole], the concentration for a half-maximal effect (EC50) (H-Ala-Phe(4-F)-[…]NH2-induced calcium mobilization) is 1.6 nM.

Consider `CNC(=O)c1ccc(-c2nc(COc3cc(OC)cc4oc(-c5cn6nc(OC)sc6n5)cc34)c(C)s2)cc1` [Example 49, 4-(4-(((6-Methoxy-2-(2-methoxyimidazo[2,1-b][1,3,4]thiadiazol-6-yl)benzofuran-4-yl)oxy)methyl)-5-methylthiazol-2-yl)-N-methylbenzamide], for which the EC50 under setting [1] stood at 0.82 nM.

In the case of `COc1cc(OCc2csc(-c3cccc(C(F)(F)F)c3)n2)c2cc(-c3cn4nc(OC)sc4n3)oc2c1` [Example 17], the concentration for a half-maximal effect (EC50) under setting [1] was determined as 1.1 nM. Regarding `COc1cc(OCc2csc(-c3ccc(C)nc3)n2)c2cc(-c3cn4nc(C)ccc4n3)oc2c1` [Example 231], under setting [1], the EC50 was found to be 1.8 nM.

`COc1cc(OCc2csc(N3CCC(F)(F)CC3)n2)c2cc(-c3cn4nc(OC)sc4n3)oc2c1` [Example 31]: the EC50 under setting [1] is 0.59 nM. On the same count and under the same terms, the result for `COc1cc(OCc2csc(C3(O)CC(C)OC(C)C3)n2)c2cc(-c3cn4nc([C@H](C)F)sc4n3)oc2c1` (stereo partly drawn) [Example 198, 4-(4-(((2-(2-((S)-1-Fluoroethyl)imidazo[2,1-b][1,3,4]thiadiazol-6-yl)-6-methoxybenzofuran-4-yl)oxy)methyl)thiazol-2-yl)-2,6-dimethyltetrahydro-2H-pyran-4-ol] reads 0.42 nM; that for `CCN(C)C(=O)c1ccc(-c2nc(COc3cc(OC)cc4oc(-c5cn6nc(OC)sc6n5)cc34)cs2)cc1` [Example 308], 0.64 nM.

In the case of `COc1cc(OCc2csc(-c3cccc(O)c3)n2)c2cc(-c3cn4nc(C)ccc4n3)oc2c1` [Example 222], the EC50 under setting [1] stood at 0.65 nM. As for `COc1cc(OCc2csc(-c3ccc(Cl)nc3)n2)c2cc(-c3cn4nc(C)ccc4n3)oc2c1` [Example 233], the EC50 under setting [1] came to 2.8 nM. Regarding `COc1cc(OCc2csc(N3CC[C@@H](O)C3)n2)c2cc(-c3cn4nc(C)ccc4n3)oc2c1` [Example 253], under setting [1], the EC50 turned out to be 9.7 nM. As for `COc1cc(OCc2csc(C3(c4cccnc4)CCC3)n2)c2cc(-c3cn4nc(OC)sc4n3)oc2c1` [Example 177, 2-Methoxy-6-(6-methoxy-4-((2-(1-(pyridin-3-yl)cyclobutyl)thiazol-4-yl)methoxy)benzofuran-2-yl)imidazo[2,1-b][1,3,4]thiadiazole], the EC50 under setting [1] amounted to 0.61 nM. The same measure, in the same setting: the value for `COc1cc(OCc2nc(C3(O)CCOCC3)sc2C)c2cc(-c3cn4nc([C@H](C)F)sc4n3)oc2c1` [Example 200, (S)-4-(4-(((2-(2-(1-Fluoroethyl)imidazo[2,1-b][1,3,4]thiadiazol-6-yl)-6-methoxybenzofuran-4-yl)oxy)methyl)-5-methylthiazol-2-yl)tetrahydro-2H-pyran-4-ol] was 0.51 nM; that for `COc1cccc(Nc2nc(COc3cc(OC)cc4oc(-c5cn6nc(C)ccc6n5)cc34)cs2)c1` [Example 283] was 2.9 nM; that for `COc1cc(OCc2csc(-c3ccc(C(=O)N4CCC(C)CC4)cc3)n2)c2cc(-c3cn4nc(OC)sc4n3)oc2c1` [Example 302] was 0.44 nM. For the compound `COc1cc(OCc2csc(-c3ccc(COC(C)=O)cc3)n2)c2cc(-c3cn4nc(C)ccc4n3)oc2c1` [Example 226], under setting [1], the EC50 is 0.81 nM. Regarding `COc1cc(OCc2csc(N3CCN(C(=O)OC(C)(C)C)CC3)n2)c2cc(-c3cn4nc(OC)sc4n3)oc2c1` [Example 99, tert-Butyl 4-(4-(((6-methoxy-2-(2-methoxyimidazo[2,1-b][1,3,4]thiadiazol-6-yl)benzofuran-4-yl)oxy)methyl)thiazol-2-yl)piperazine-1-carboxylate], the concentration for a half-maximal effect (EC50) under setting [1] is 0.84 nM. Still for that read-out and setting: the value for `COc1cc(OCc2csc(C3(O)CCC(C(=O)O)CC3)n2)c2cc(-c3cn4nc(OC)sc4n3)oc2c1` (centres unmarked) [Example 150, 4-Hydroxy-4-(4-(((6-methoxy-2-(2-methoxyimidazo[2,1-b][1,3,4]thiadiazol-6-yl)benzofuran-4-yl)oxy)methyl)thiazol-2-yl)cyclohexanecarboxylic acid] was 0.92 nM; that for `COc1cc(OCc2csc(C3(c4ccc(Cl)cc4)CCOC3)n2)c2cc(-c3cn4nc(C)ccc4n3)oc2c1` (centres unmarked) [Example 241] was 1.2 nM; that for `COc1cc(OCc2csc(N3CCS(=O)(=O)CC3)n2)c2cc(-c3cn4nc(OC)sc4n3)oc2c1` [Example 54] was 0.36 nM.

For `COc1cc(OCc2nc(-c3ccccc3)sc2Cl)c2cc(-c3cn4nc(OC)sc4n3)oc2c1` [Example 85, 6-(4-((5-Chloro-2-phenylthiazol-4-yl)methoxy)-6-methoxybenzofuran-2-yl)-2-methoxyimidazo[2,1-b][1,3,4]thiadiazole], the concentration for a half-maximal effect (EC50) under setting [1] is 1.1 nM. For the compound `COc1cc(OCc2csc(-c3cccc(C#N)c3)n2)c2cc(-c3cn4nc(OC)sc4n3)oc2c1` [Example 61], under setting [1], the concentration giving a half-maximal response (EC50) stood at 0.64 nM. Same read-out and setting: the result for `COc1cc(OCc2csc(N3CCC(N(C)C)CC3)n2)c2cc(-c3cn4nc(C)ccc4n3)oc2c1` [Example 252] reads 871 nM. For `CCCN(C(=O)c1ccc(-c2nc(COc3cc(OC)cc4oc(-c5cn6nc(OC)sc6n5)cc34)cs2)cc1)C(C)C1CC1` (centres unmarked) [Example 313], the EC50 under setting [1] came to 0.43 nM. With `COc1cc(OCc2csc(-c3cnco3)n2)c2cc(-c3cn4nc(OC)sc4n3)oc2c1` [Example 117, 5-(4-(((6-methoxy-2-(2-methoxyimidazo[2,1-b][1,3,4]thiadiazol-6-yl)benzofuran-4-yl)oxy)methyl)thiazol-2-yl)oxazole], the EC50 under setting [1] turned out to be 0.43 nM.

Regarding `COc1cc(OCc2csc(C3(O)CCC(F)(F)CC3)n2)c2cc(-c3cn4nc(OC)sc4n3)oc2c1` [Example 135, 4,4-Difluoro-1-(4-(((6-methoxy-2-(2-methoxyimidazo[2,1-b][1,3,4]thiadiazol-6-yl)benzofuran-4-yl)oxy)methyl)thiazol-2-yl)cyclohexanol], under setting [1], the EC50 was determined as 0.79 nM. Regarding `COc1cc(OCc2csc(C(C)(C)c3ccc(Cl)cc3)n2)c2cc(-c3cn4nc(OC)sc4n3)oc2c1` [Example 176, 6-(4-((2-(2-(4-Chlorophenyl)propan-2-yl)thiazol-4-yl)methoxy)-6-methoxybenzofuran-2-yl)-2-methoxyimidazo[2,1-b][1,3,4]thiadiazole], the EC50 under setting [1] turned out to be 1.3 nM.
